Values quoted from earlier work as cited in patent US20020103240A1, “Process for resolution of 2-amino-6-propylamino-4,5,6,7-tetrahydrobenzthiazole and compounds therefor” (priority 2000, published 2002).

Settings: (S) isomer compared with (R) enantiomer; no test described

With `CCCN[C@H]1CCc2nc(N)sc2C1` [pramipexole, (S)-2-amino-6-propylamino-4,5,6,7-tetrahydrobenzothiazole] as the compound, how does the “dopaminergic activity of the (S) isomer relative to the (R) enantiomer” value read?
Its value is “twice as high”.
